Measurements from patent US5565486A, “Sesquiterpenes, their preparation and their use as inhibitors acting on the gaba-benzodiazepine receptor” (Xenova Limited, priority 1992, dated 1996).
Blank lines part the entries; values can stand above or below the compound they belong to.

How the values were obtained:
[1] = Solubility in organic solvents; format: physicochemical; conditions: solvents in which soluble
[2] = target: benzodiazepine receptor; test: Benzodiazepine-receptor binding assay ([3H]-flunitrazepam displacement, ox cerebral cortex synaptosomal preparation); conditions: for IC50: [3H]-flunitrazepam 1 nM, pH 7.4
Method: The present compounds have shown activity in a benzodiazepine-receptor binding assay which uses a tritiated ligand specific for the receptor present on the purified GABA-Bz-Cl^- ionophore receptor complex. The details of the assay are set out in Example 5 which follows.
The receptor extract was a crude synaptosomal preparation isolated from ox cerebral cortex by the method of Lang et al (FEBS Lett., 104 149-153, 1979). Receptor binding was determined using a modification described by O'Beirne and Williams (Eur. J. Biochem, 175 413-421, 1988) of the method of Braestrup and Squires (PNAS 74 3805-3809, 1977). The receptor preparation was incubated in 50 mM Tris/Cl, pH 7.4, with compound A and [^3 H]-flunitrazepam (agonist) at a final concentration of 1 nM. Bound radioligand was harvested on to glass fibre filters and measured by liquid scintillation counting. Non-specific binding was determined by displacement of ligand with Diazepam (1 μM).
Binding data were fitted to one or two site models by weighted non-linear regression analysis using the computer programs `LIGAND` (Munson and Rodbard: Analytic Biochem 107 220-239, 1980) and `EBDA` (McPherson-Computer Prog. in Biomed. 7 107-114, 1983).
The method described above was repeated using each of compounds B and C described in Examples 3 and 4 respectively, and also using compound D, which is the sodium salt of compound A.
IC50 values were also determined for compounds A', E and F described in Examples 5 to 7 respectively.

Compound: C/C1=C\CC(C)(C)/C=C/C[C@@]2(C)OC3=C(O)C(=O)[C@H]4CO[C@H]([C@@H]34)[C@@H]2CC1 [Compound A]
Solubility [1]: Methanol, acetone, ethyl acetate
IC50 [2]: 40 nM
% Inhibition ([2]; concentration 3 nM): 11%
% Inhibition ([2]; concentration 9 nM): 35%
% Inhibition ([2]; concentration 28 nM): 44%
% Inhibition ([2]; concentration 93 nM): 65%
% Inhibition ([2]; concentration 280 nM): 80%
% Inhibition ([2]; concentration 930 nM): 92%
% Inhibition ([2]; concentration 3 μM): 93%
% Inhibition ([2]; concentration 9 μM): 99%
% Inhibition ([2]; concentration 28 μM): 106%
% Inhibition ([2]; concentration 93 μM): 107%

Compound: C/C1=C\CC(C)(C)/C=C/C[C@@]2(C)Oc3c4c(c(O)c(O)c(=O)c3O)CO[C@H]4[C@@H]2CC1 [Compound B]
Solubility [1]: Methanol, ethyl acetate, chloroform, acetone
IC50 [2]: 5000 nM
% Inhibition ([2]; concentration 18 nM): 21%
% Inhibition ([2]; concentration 53 nM): 21%
% Inhibition ([2]; concentration 177 nM): 36%
% Inhibition ([2]; concentration 530 nM): 42%
% Inhibition ([2]; concentration 2 μM): 53%
% Inhibition ([2]; concentration 5 μM): 69%
% Inhibition ([2]; concentration 18 μM): 82%
% Inhibition ([2]; concentration 53 μM): 92%
% Inhibition ([2]; concentration 177 μM): 78%

Compound: C/C1=C\CC(C)(C)/C=C/C[C@@]2(C)Oc3c(O)c(O)cc4c3[C@@H](OC4)[C@@H]2CC1 [Compound E]
Solubility [1]: methanol, ethyl acetate
IC50 [2]: 500 nM
% Inhibition ([2]; concentration 4.8 × 10^-5 M): 101%
% Inhibition ([2]; concentration 4.8 × 10^-6 M): 88%
% Inhibition ([2]; concentration 4.8 × 10^-7 M): 52%
% Inhibition ([2]; concentration 4.8 × 10^-8 M): 37%
% Inhibition ([2]; concentration 4.8 × 10^-9 M): 22%
% Inhibition ([2]; concentration 9.5 × 10^-5 M): 104%
% Inhibition ([2]; concentration 9.5 × 10^-6 M): 93%
% Inhibition ([2]; concentration 9.5 × 10^-7 M): 65%
% Inhibition ([2]; concentration 9.5 × 10^-8 M): 42%
% Inhibition ([2]; concentration 9.5 × 10^-9 M): 27%

Other lines, results leading:

Solubility [1]: Methanol, acetone, ethyl acetate
IC50 [2]: 20000 nM
% Inhibition ([2]; concentration 80 nM): 9%
% Inhibition ([2]; concentration 240 nM): -3%
% Inhibition ([2]; concentration 800 nM): 9%
% Inhibition ([2]; concentration 2 μM): 12%
% Inhibition ([2]; concentration 8 μM): 35%
% Inhibition ([2]; concentration 24 μM): 54%
% Inhibition ([2]; concentration 80 μM): 77%
% Inhibition ([2]; concentration 242 μM): 88%
Compound: C/C1=C\CC(C)(C)/C=C/C[C@@]2(C)Oc3c4c(cc(O)c(=O)c3O)CO[C@H]4[C@@H]2CC1 [Compound C]

IC50 [2]: 10 nM
% Inhibition ([2]; concentration 5 nM): 45%
% Inhibition ([2]; concentration 10 nM): 45%
% Inhibition ([2]; concentration 50 nM): 70%
% Inhibition ([2]; concentration 100 nM): 65%
% Inhibition ([2]; concentration 500 nM): 81%
% Inhibition ([2]; concentration 1 μM): 86%
% Inhibition ([2]; concentration 5 μM): 98%
% Inhibition ([2]; concentration 10 μM): 100%
% Inhibition ([2]; concentration 50 μM): 103%
% Inhibition ([2]; concentration 100 μM): 92%
Compound: C/C1=C\CC(C)(C)/C=C/C[C@@]2(C)OC3=C(O)C(=O)[C@H]4CO[C@H]([C@@H]34)[C@@H]2CC1 [Compound D]

Solubility [1]: methanol
IC50 [2]: 3000 nM
% Inhibition ([2]; concentration 2.7 × 10^-4 M): 94%
% Inhibition ([2]; concentration 2.7 × 10^-5 M): 77%
% Inhibition ([2]; concentration 2.7 × 10^-6 M): 48%
% Inhibition ([2]; concentration 2.7 × 10^-7 M): 33%
% Inhibition ([2]; concentration 2.7 × 10^-8 M): 24%
% Inhibition ([2]; concentration 9.0 × 10^-5 M): 89%
% Inhibition ([2]; concentration 9.0 × 10^-6 M): 65%
% Inhibition ([2]; concentration 9.0 × 10^-7 M): 41%
% Inhibition ([2]; concentration 9.0 × 10^-8 M): 27%
% Inhibition ([2]; concentration 9.0 × 10^-9 M): 15%
Compound: C/C1=C\CC(C)(C)/C=C/C[C@@]2(C)OC3=C4C(=CC(=O)C3=O)CO[C@H]4[C@@H]2CC1 [Compound F]
